According to patent US12421226B2, “Heteroaryl compounds as necrosis inhibitors, composition and method using the same” (Accro Bioscience (HK), priority 2019, dated 2025):
Counter-ions that a name gives are not always drawn.

Tests used:
HT29 cells = assay: Necroptosis inhibition in HT29 cell assay (TNF-α/Smac mimetic/z-VAD induced, cell viability); assay type: cell-based; conditions: Homo sapiens, HT-29, 1 h pre-treatment with compound, then TNF-α 40 ng/mL + Smac mimetic 100 nM + z-VAD 20 μM for 48 hours
Protocol: 1. Compounds Tested for Necroptosis Inhibition Activities in HT29 Cell Assay
(§1) For this assay, HT29 cells were added to 96-well plates and then were pre-treated with 10 μM of the test compound for one hour. Then the cells were treated with tumor necrosis factor alpha (TNF-α, 40 ng/mL), Smacmimetic (cIAP inhibitor) (100 nM) and z-VAD (capase inhibitor, from calbiochem) (20 μM) for 48 hours, and the viability of cells was quantified. DMSO pretreatment group was used as negative controls, Nec-1 (known necroptosis inhibitor, from Biomol) pretreatment group was used as positive controls.

[1] = tested on: L929 mouse skin fibroblast cells; assay: Necroptosis inhibition in L929 cell assay (TNF-α/z-VAD induced, cell viability by ATP levels); assay type: cell-based; conditions: Mus musculus, 1 h pre-treatment with compound, then TNF-α 40 ng/mL + z-VAD 20 μM for 48 hours
Protocol: 2. Compounds Tested for Necroptosis Inhibition Activities in L929 Cell Assay
as §1, with “Mouse L929 mouse skin fibroblast” for “For this assay, HT29”, “TNF-α (40 ng/mL, lab-made)” for “tumor necrosis factor alpha (TNF-α, 40 ng/mL), Smacmimetic (cIAP inhibitor) (100 nM)”, “quantified by detecting adenosine triphosphate (ATP) levels.” for “quantified.”

Row | SMILES | IC50 (HT29 cells) [nM] | IC50 [1] [nM]
1 | CC(=O)Nc1nc2ccc(-c3cnc4ccn(C(=O)OC5CCCCC5)c4c3)cc2s1 [Compound C1, cyclohexyl 6-(2-acetamido-1,3-benzothiazol-6-yl)pyrrolo[3,2-b]pyridine-1-carboxylate] | 43 | –
2 | CC(=O)Nc1nc2ccc(-c3cnc4ncn(C(=O)OC5CCCCC5)c4c3)cc2s1 [Compound C2, cyclohexyl 6-(2-acetamido-1,3-benzothiazol-6-yl)imidazo[4,5-b]pyridine-1-carboxylate] | 11000 | –
3 | O=C(Nc1nc2ccc(-c3cnc4ccn(C(=O)OC5CCOCC5)c4c3)nc2s1)C1CC1 [Compound C3, tetrahydropyran-4-yl 6-[2-(cyclopropanecarbonylamino)thiazolo[5,4-b]pyridin-5-yl]pyrrolo[3,2-b]pyridine-1-carboxylate] | 9.6 | 72.8
4 | O=C(Nc1nc2ccc(-c3cnc4ccn(C(=O)OC5CCC(F)(F)CC5)c4c3)cc2s1)C1CC1 [Compound C4, (4,4-difluorocyclohexyl) 6-[2-(cyclopropanecarbonylamino)-1,3-benzothiazol-6-yl]pyrrolo[3,2-b]pyridine-1-carboxylate] | 83 | 3.2
5 | O=C(Nc1nc2ccc(-c3cnc4ccn(C(=O)OC5CCOCC5)c4c3)cc2s1)C1CC1 [Compound C5, tetrahydropyran-4-yl 6-[2-(cyclopropanecarbonylamino)-1,3-benzothiazol-6-yl]pyrrolo[3,2-b]pyridine-1-carboxylate] | 5.6 | 17
6 | CNC(=O)Nc1nc2ccc(-c3cnc4ccn(C(=O)OC5CCOCC5)c4c3)cc2s1 [Compound C7, tetrahydropyran-4-yl 6-[2-(methylcarbamoylamino)-1,3-benzothiazol-6-yl]pyrrolo[3,2-b]pyridine-1-carboxylate] | 32 | –
7 | O=C(NC1CCOCC1)c1c[nH]c2ncc(-c3ccc4nc(NC(=O)C5CC5)sc4c3)cc12 [Compound C9, 5-[2-(cyclopropanecarbonylamino)-1,3-benzothiazol-6-yl]-N-tetrahydropyran-4-yl-1H-pyrrolo[2,3-b]pyridine-3-carboxamide] | 5200 | –
8 | O=C(NC1CCOCC1)c1n[nH]c2ncc(-c3ccc4nc(NC(=O)C5CC5)sc4c3)cc12 [Compound C10, 5-[2-(cyclopropanecarbonylamino)-1,3-benzothiazol-6-yl]-N-tetrahydropyran-4-yl-1H-pyrazolo[3,4-b]pyridine-3-carboxamide] | 12000 | –
9 | O=C(Nc1nc2ccc(-c3cnc4cnn(C(=O)OC5CCOCC5)c4c3)cc2s1)C1CC1 [Compound C11, tetrahydropyran-4-yl 6-[2-(cyclopropanecarbonylamino)-1,3-benzothiazol-6-yl]pyrazolo[4,3-b]pyridine-1-carboxylate] | 4100 | –
10 | O=C(NC1CCOCC1)c1cccc2ncc(-c3ccc4nc(NC(=O)C5CC5)sc4c3)cc12 [Compound C13, 3-[2-(cyclopropanecarbonylamino)-1,3-benzothiazol-6-yl]-N-tetrahydropyran-4-yl-quinoline-5-carboxamide] | 13000 | –
11 | O=C(Nc1nc2ccc(-c3cnc4ccn(C(=O)OC5CCCCC5)c4c3)cc2s1)C1CC1 [Compound C15] | 7 | –
12 | CNC(=O)Nc1nc2ccc(-c3cnc4ccn(C(=O)OC5CCCCC5)c4c3)cc2s1 [Compound C16, cyclohexyl 6-[2-(methylcarbamoylamino)-1,3-benzothiazol-6-yl]pyrrolo[3,2-b]pyridine-1-carboxylate] | 25 | –
13 | O=C(Nc1cn2cc(-c3cnc4ccn(C(=O)OC5CCCCC5)c4c3)ccc2n1)C1CC1 [Compound C17] | 16 | –
14 | CC(=O)Nc1nc2ccc(-c3cnc4scc(C(=O)NC5CCCCC5)c4c3)cc2s1 [Compound C19, 5-(2-acetamido-1,3-benzothiazol-6-yl)-N-cyclohexyl-thieno[2,3-b]pyridine-3-carboxamide] | 11 | –
15 | O=C(Nc1nc2ccc(-c3cnc4ccn(C(=O)NC5CCOCC5)c4c3)cc2s1)C1CC1 [Compound C21, 6-[2-(cyclopropanecarbonylamino)-1,3-benzothiazol-6-yl]-N-tetrahydropyran-4-yl-pyrrolo[3,2-b]pyridine-1-carboxamide] | 22 | –
16 | CC(=O)Nc1nc2ccc(-c3cnc4snc(C(=O)NC5CCCCC5)c4c3)cc2s1 [Compound C22, 5-(2-acetamido-1,3-benzothiazol-6-yl)-N-cyclohexyl-isothiazolo[5,4-b]pyridine-3-carboxamide] | 35 | –

Row | SMILES | IC50 (HT29 cells) [nM] | IC50 [1] [nM]
17 | CCC(CC)OC(=O)n1ccc2ncc(-c3ccc4nc(NC(=O)C5CC5)sc4c3)cc21 [Compound C24, 1-ethylpropyl 6-[2-(cyclopropanecarbonylamino)-1,3-benzothiazol-6-yl]pyrrolo[3,2-b]pyridine-1-carboxylate] | 33 | –
18 | O=C(Nc1nc2ccc(-c3cnc4ccn(C(=O)CC5CCCCC5)c4c3)cc2s1)C1CC1 [Compound C25, N-[6-[1-(2-cyclohexylacetyl)pyrrolo[3,2-b]pyridin-6-yl]-1,3-benzothiazol-2-yl]cyclopropanecarboxamide] | 29 | –
19 | CCC(=O)Nc1nc2ccc(-c3cnc4ccn(C(=O)OC5CCCCC5)c4c3)cc2s1 [Compound C26, cyclohexyl 6-[2-(propanoylamino)-1,3-benzothiazol-6-yl]pyrrolo[3,2-b]pyridine-1-carboxylate] | 50 | –
20 | CNC(=O)Nc1nc2ccc(-c3cnc4snc(C(=O)NC5CCCCC5)c4c3)cc2s1 [Compound C27, N-cyclohexyl-5-[2-(methylcarbamoylamino)-1,3-benzothiazol-6-yl]isothiazolo[5,4-b]pyridine-3-carboxamide] | 33 | –
21 | CNCC(C)NC(=O)c1csc2ncc(-c3ccc4nc(NC(=O)C5CC5)sc4c3)cc12 (centres unmarked) [Compound C28, 5-[2-(cyclopropanecarbonylamino)-1,3-benzothiazol-6-yl]-N-[1-methyl-2-(methylamino)ethyl]thieno[2,3-b]pyridine-3-carboxamide] | 380 | –
22 | CCOC(=O)Nc1nc2ccc(-c3cnc4snc(C(=O)NC5CCCCC5)c4c3)cc2s1 [Compound C29, ethyl N-[6-[3-(cyclohexylcarbamoyl)isothiazolo[5,4-b]pyridin-5-yl]-1,3-benzothiazol-2-yl]carbamate] | 3.1 | –
23 | CCC(CC)NC(=O)c1nsc2ncc(-c3ccc4nc(NC(=O)C5CC5)sc4c3)cc12 [Compound C31, 5-[2-(cyclopropanecarbonylamino)-1,3-benzothiazol-6-yl]-N-(1-ethylpropyl)isothiazolo[5,4-b]pyridine-3-carboxamide] | 11 | –
24 | CNCC(C)NC(=O)c1nsc2ncc(-c3ccc4nc(NC(=O)C5CC5)sc4c3)cc12 (centres unmarked) [Compound C32, 5-[2-(cyclopropanecarbonylamino)-1,3-benzothiazol-6-yl]-N-[1-methyl-2-(methylamino)ethyl]isothiazolo[5,4-b]pyridine-3-carboxamide] | 1400 | –
25 | CCOC(=O)Nc1nc2ccc(-c3cnc4ccn(C(=O)OC5CCCCC5)c4c3)cc2s1 [Compound C34, cyclohexyl 6-[2-(ethoxycarbonylamino)-1,3-benzothiazol-6-yl]pyrrolo[3,2-b]pyridine-1-carboxylate] | 150 | –
26 | O=C(NC1CCOCC1)c1nsc2ncc(-c3ccc4nc(NC(=O)C5CC5)cn4c3)cc12 [Compound C35, 5-[2-(cyclopropanecarbonylamino)imidazo[1,2-a]pyridin-6-yl]-N-tetrahydropyran-4-yl-isothiazolo[5,4-b]pyridine-3-carboxamide] | 160 | –
27 | CNCC(C)OC(=O)n1ccc2ncc(-c3ccc4nc(NC(=O)C5CC5)sc4c3)cc21 (centres unmarked) [Compound C36, [1-methyl-2-(methylamino)ethyl] 6-[2-(cyclopropanecarbonylamino)-1,3-benzothiazol-6-yl]pyrrolo[3,2-b]pyridine-1-carboxylate, hydrochloride salt] | 16000 | –
28 | CCC(CC)NC(=O)c1csc2ncc(-c3ccc4nc(NC(=O)C5CC5)sc4c3)cc12 [Compound C37, 5-[2-(cyclopropanecarbonylamino)-1,3-benzothiazol-6-yl]-N-(1-ethylpropyl)thieno[2,3-b]pyridine-3-carboxamide] | 3.2 | –
29 | O=C(NC1CCC(F)(F)CC1)c1csc2ncc(-c3ccc4nc(NC(=O)C5CC5)sc4c3)cc12 [Compound C38, 5-[2-(cyclopropanecarbonylamino)-1,3-benzothiazol-6-yl]-N-(4,4-difluorocyclohexyl)thieno[2,3-b]pyridine-3-carboxamide] | 1.8 | –
30 | CCOC(=O)Nc1nc2ccc(-c3cnc4scc(C(=O)NC5CCCCC5)c4c3)cc2s1 [Compound C39, ethyl N-[6-[3-(cyclohexylcarbamoyl)thieno[2,3-b]pyridin-5-yl]-1,3-benzothiazol-2-yl]carbamate] | 48 | –
31 | O=C(NC1CCOCC1)c1csc2ncc(-c3ccc4nc(NC(=O)C5CC5)cn4c3)cc12 [Compound C40, 5-[2-(cyclopropanecarbonylamino)imidazo[1,2-a]pyridin-6-yl]-N-tetrahydropyran-4-yl-thieno[2,3-b]pyridine-3-carboxamide] | 60 | –
32 | O=C(NC1CCCCC1)c1csc2ncc(-c3ccc4nc(NC(=O)C5CC5)cn4c3)cc12 [Compound C41, N-cyclohexyl-5-[2-(cyclopropanecarbonylamino)imidazo[1,2-a]pyridin-6-yl]thieno[2,3-b]pyridine-3-carboxamide] | 2 | –
